Legend:
[1] = Inhibition of amyloid beta (1 to 42) aggregation assessed as inhibition of fibril formation at 10 uM by thioflavin-T fluorescent dye assay
SH-SY5Y = assay: cells; settings: Homo sapiens, 48 h
Description: Cytotoxicity against human SH-SY5Y cells assessed as cell viability after 48 hrs by MTT assay

Acetylcholinesterase = Acetylcholinesterase (Electrophorus electricus, UniProt O42275)
Description: Inhibition of electric eel AChE by Ellman's method

Cholinesterase = Cholinesterase (Equus caballus, UniProt P81908)
Cholinesterase, sequence (P81908 whole entry): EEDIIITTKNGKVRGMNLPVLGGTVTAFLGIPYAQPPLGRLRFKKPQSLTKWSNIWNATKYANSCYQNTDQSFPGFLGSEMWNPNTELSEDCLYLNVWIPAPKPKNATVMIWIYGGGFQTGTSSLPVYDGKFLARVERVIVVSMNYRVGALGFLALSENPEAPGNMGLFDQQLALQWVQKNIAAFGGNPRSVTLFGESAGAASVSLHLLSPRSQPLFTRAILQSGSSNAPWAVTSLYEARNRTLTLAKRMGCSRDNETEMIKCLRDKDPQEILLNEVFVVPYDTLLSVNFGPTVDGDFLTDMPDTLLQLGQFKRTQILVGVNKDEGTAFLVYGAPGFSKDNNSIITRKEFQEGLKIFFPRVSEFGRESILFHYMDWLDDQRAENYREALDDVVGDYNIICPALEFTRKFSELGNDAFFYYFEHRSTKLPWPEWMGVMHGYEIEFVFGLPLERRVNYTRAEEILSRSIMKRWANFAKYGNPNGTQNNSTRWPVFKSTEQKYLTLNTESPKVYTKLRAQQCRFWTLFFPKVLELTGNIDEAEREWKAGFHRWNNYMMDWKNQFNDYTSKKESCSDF
Description: Inhibition of equine serum BChE by Ellman's method

Acetylcholinesterase, sequence (O42275 whole entry): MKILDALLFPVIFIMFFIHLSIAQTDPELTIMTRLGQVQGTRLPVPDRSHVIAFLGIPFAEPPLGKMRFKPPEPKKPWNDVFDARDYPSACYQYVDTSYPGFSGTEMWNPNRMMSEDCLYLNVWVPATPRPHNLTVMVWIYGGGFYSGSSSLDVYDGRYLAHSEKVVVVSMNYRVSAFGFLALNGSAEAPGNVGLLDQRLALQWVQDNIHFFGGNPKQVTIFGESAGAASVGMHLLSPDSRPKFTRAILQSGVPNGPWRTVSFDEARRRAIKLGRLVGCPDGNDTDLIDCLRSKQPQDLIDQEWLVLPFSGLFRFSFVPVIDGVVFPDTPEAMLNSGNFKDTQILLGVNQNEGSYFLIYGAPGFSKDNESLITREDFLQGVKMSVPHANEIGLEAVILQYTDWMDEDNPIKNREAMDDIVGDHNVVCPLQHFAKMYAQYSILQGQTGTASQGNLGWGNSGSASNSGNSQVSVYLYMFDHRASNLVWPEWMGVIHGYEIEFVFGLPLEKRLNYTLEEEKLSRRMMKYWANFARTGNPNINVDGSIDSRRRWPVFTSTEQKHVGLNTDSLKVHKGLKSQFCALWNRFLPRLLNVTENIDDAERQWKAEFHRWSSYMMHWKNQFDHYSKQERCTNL

SMILES	inhibition [1]	IC50 (SH-SY5Y)	IC50 (Acetylcholinesterase)	IC50 (Cholinesterase)
CN(C)CCCC(=O)Nc1ccc2c(c1)C(=O)c1cccc3ccnc-2c13	65.2%	3.27 µM		
CCN(CC)CCCOc1ccc2c3c(nccc13)-c1ccccc1C2=O	14%	> 25 µM	0.0343 µM	2.7 µM
C[N+]1(CC(=O)Nc2ccc3c(c2)C(=O)c2cccc4ccnc-3c24)CCCC1	52%	> 25 µM		
CCN(CC)CCC(=O)Nc1ccc2c(c1)C(=O)c1cccc3ccnc-2c13	62.5%	3.94 µM		
COc1cc(/C=C/C(=O)CC(=O)/C=C/c2ccc(O)c(OC)c2)ccc1O	33.3%			
O=C1c2ccccc2-c2ncc(OCCN3CCCCC3)c3cccc1c23	34.2%	> 25 µM	0.375 µM	0.723 µM
C[N+]1(CCC(=O)Nc2ccc3c(c2)C(=O)c2cccc4ccnc-3c24)CCCC1	85.9%	2.12 µM		
O=C1c2ccccc2-c2ncc(OCCN3CCCC3)c3cccc1c23	31.8%	12 µM	0.471 µM	0.79 µM
CN1CCN(CCCOc2ccc3c4c(nccc24)-c2ccccc2C3=O)CC1	33.6%	> 25 µM	0.405 µM	5.5 µM
CN(C)CCCNc1ccc2c3c(nccc13)-c1ccccc1C2=O	57.6%	> 25 µM	0.398 µM	3.35 µM
CN(C)CCC(=O)Nc1ccc2c(c1)C(=O)c1cccc3ccnc-2c13	69.8%	4.14 µM		
C[N+]1(CCOc2cnc3c4c(cccc24)C(=O)c2ccccc2-3)CCCCC1	50.9%	> 25 µM	0.095 µM	0.255 µM
O=C1c2ccccc2-c2nccc3c(OCCCN4CCCCC4)ccc1c23	40.1%	> 25 µM	0.022 µM	0.905 µM
C[N+](C)(C)CCCC(=O)Nc1ccc2c(c1)C(=O)c1cccc3ccnc-2c13	58.6%	> 25 µM		
O=C1c2ccccc2-c2nccc3c(OCCN4CCCCC4)ccc1c23	38.9%	> 25 µM	0.088 µM	2.21 µM
C[N+](C)(C)CCC(=O)Nc1ccc2c(c1)C(=O)c1cccc3ccnc-2c13	80.1%	> 25 µM		
CC[N+](C)(CC)CCC(=O)Nc1ccc2c(c1)C(=O)c1cccc3ccnc-2c13	82.7%	> 25 µM		
C[N+](C)(C)CCOc1cnc2c3c(cccc13)C(=O)c1ccccc1-2	42%	> 25 µM	0.933 µM	0.972 µM
CN(C)CCOc1cnc2c3c(cccc13)C(=O)c1ccccc1-2	14.3%	16.2 µM	1.56 µM	1.64 µM
CN1CCN(CCOc2ccc3c4c(nccc24)-c2ccccc2C3=O)CC1	43%	> 25 µM	0.432 µM	2.75 µM
C[N+]1(CCOc2cnc3c4c(cccc24)C(=O)c2ccccc2-3)CCCC1	48.8%	> 25 µM	0.145 µM	0.302 µM
O=C(CCN1CCCC1)Nc1ccc2c(c1)C(=O)c1cccc3ccnc-2c13	69.8%	4.57 µM		
CCN(CC)CCOc1cnc2c3c(cccc13)C(=O)c1ccccc1-2	3.88%	9.21 µM	0.7 µM	1.49 µM
CC[N+](C)(CC)CCOc1cnc2c3c(cccc13)C(=O)c1ccccc1-2	45.5%	> 25 µM	0.258 µM	0.708 µM
O=C(CN1CCCC1)Nc1ccc2c(c1)C(=O)c1cccc3ccnc-2c13	45.4%	5.37 µM		
CCN(CC)CCOc1ccc2c3c(nccc13)-c1ccccc1C2=O	10.7%	> 25 µM	0.201 µM	3.07 µM

From ChEMBL document CHEMBL1770074, “Syntheses and characterization of novel oxoisoaporphine derivatives as dual inhibitors for cholinesterases and amyloid beta aggregation” (Eur J Med Chem, 2011)
